Results reported in the supplement of paper PMC13380429.

Columns and labels:
Details in all cases: 72 h
Vero E6 [1] = assay: cell viability relative to DMSO; higher = less toxic
U2OS [2] = assay: as above
Calu-3 [3] = assay: as above
Caco-2 [4] = assay: as above
HepG2 [5] = assay: as above
Vero E6 [6] = assay: relative viability EC50 (midpoint between 100% and the lowest measured viability); higher = less toxic
U2OS [7] = assay: as above
Calu-3 [8] = assay: as above
Caco-2 [9] = assay: as above
HepG2 [10] = assay: as above
Vero E6 [11] = assay: drug sensitivity score (DSS) for viability; higher = more toxic; extreme values may be limits of the assay
U2OS [12] = assay: as above
Calu-3 [13] = assay: as above
Caco-2 [14] = assay: as above
HepG2 [15] = assay: as above

Row | Structure (SMILES) | cell viability (Vero E6 [1]; 1 nM) [%] | cell viability (Vero E6 [1]; 10 nM) [%] | cell viability (Vero E6 [1]; 100 nM) [%] | cell viability (Vero E6 [1]; 1000 nM) [%] | cell viability (Vero E6 [1]; 10000 nM) [%] | cell viability (U2OS [2]; 1 nM) [%] | cell viability (U2OS [2]; 10 nM) [%] | cell viability (U2OS [2]; 100 nM) [%] | cell viability (U2OS [2]; 1000 nM) [%] | cell viability (U2OS [2]; 10000 nM) [%] | cell viability (Calu-3 [3]; 1 nM) [%] | cell viability (Calu-3 [3]; 10 nM) [%] | cell viability (Calu-3 [3]; 100 nM) [%] | cell viability (Calu-3 [3]; 1000 nM) [%] | cell viability (Calu-3 [3]; 10000 nM) [%] | cell viability (Caco-2 [4]; 1 nM) [%] | cell viability (Caco-2 [4]; 10 nM) [%] | cell viability (Caco-2 [4]; 100 nM) [%] | cell viability (Caco-2 [4]; 1000 nM) [%] | cell viability (Caco-2 [4]; 10000 nM) [%] | cell viability (HepG2 [5]; 1 nM) [%] | cell viability (HepG2 [5]; 10 nM) [%] | cell viability (HepG2 [5]; 100 nM) [%] | cell viability (HepG2 [5]; 1000 nM) [%] | cell viability (HepG2 [5]; 10000 nM) [%] | relative viability EC50 (Vero E6 [6]) [µM] | relative viability EC50 (U2OS [7]) [µM] | relative viability EC50 (Calu-3 [8]) [µM] | relative viability EC50 (Caco-2 [9]) [µM] | relative viability EC50 (HepG2 [10]) [µM] | drug sensitivity score (Vero E6 [11]) | drug sensitivity score (U2OS [12]) | drug sensitivity score (Calu-3 [13]) | drug sensitivity score (Caco-2 [14]) | drug sensitivity score (HepG2 [15])
1 | CCCCC[C@H](O)/C=C/[C@H]1[C@H](O)CC(=O)[C@@H]1C/C=C\CCCC(=O)O [dinoprostone] | 101 | 107 | 101 | 103 | 94.9 | 101 | 98.2 | 102 | 98.5 | 98.3 | 96.3 | 90 | 90.2 | 94 | 94.8 | 101 | 104 | 101 | 102 | 95.2 | 99.8 | 104 | 90.4 | 103 | 99 | > 10 | > 10 | > 10 | > 10 | > 10 | 0 | 0 | 0 | 0 | 0
2 | C[C@H](N)C(=O)N[C@@H](CCC(N)=O)C(=O)O [dipeptamin] | 99.5 | 98.1 | 94.1 | 98 | 95.4 | 95.9 | 106 | 98.6 | 103 | 98.9 | 101 | 98.9 | 94.7 | 95.1 | 103 | 97.4 | 104 | 96.5 | 95.2 | 110 | 104 | 93.2 | 95.5 | 100 | 96.1 | > 10 | > 10 | > 10 | > 10 | > 10 | 0 | 0 | 0 | 0 | 0
3 | CC(C)N(CCC(C(N)=O)(c1ccccc1)c1ccccn1)C(C)C (stereo not given) [disopyramide] | 102 | 101 | 96 | 97.7 | 97.5 | 103 | 102 | 100 | 99.7 | 95.7 | 101 | 93.2 | 96.3 | 96.9 | 89.7 | 94.4 | 104 | 101 | 102 | 91.8 | 105 | 86.8 | 94.7 | 91.9 | 99.4 | > 10 | > 10 | > 10 | > 10 | > 10 | 0 | 0 | 0 | 0 | 0
4 | CCc1ccc(C(=O)C(C)CN2CCCCC2)cc1 (stereo not given) [eperisone] | 105 | 99.7 | 106 | 103 | 105 | 93.6 | 102 | 96.2 | 99.9 | 94.9 | 103 | 93.7 | 87.5 | 101 | 88.8 | 98.6 | 106 | 91.7 | 102 | 98.5 | 107 | 95.5 | 95.8 | 95.4 | 100 | > 10 | > 10 | > 10 | > 10 | > 10 | 0 | 0 | 0 | 0 | 0
5 | NC1=NCC2c3ccccc3Cc3ccccc3N12 (stereo not given) [epinastine] | 98.6 | 105 | 99.7 | 96 | 99.5 | 97 | 102 | 91.7 | 92.8 | 98.6 | 99.3 | 103 | 98.2 | 98 | 92 | 91.6 | 87.4 | 95 | 98.9 | 93.3 | 97.3 | 102 | 105 | 99.1 | 102 | > 10 | > 10 | > 10 | > 10 | > 10 | 0 | 0 | 0 | 0 | 0
6 | C[C@]12CC[C@@H]3c4ccc(O)cc4CC[C@H]3[C@@H]1C[C@@H](O)[C@@H]2O [estriol] | 96 | 99.1 | 96.5 | 89.2 | 105 | 99.3 | 97.4 | 101 | 101 | 102 | 94.5 | 96.5 | 95.6 | 93.7 | 103 | 97.5 | 96.3 | 101 | 105 | 105 | 106 | 103 | 96.8 | 90.4 | 96.1 | > 10 | > 10 | > 10 | > 10 | > 10 | 0 | 0 | 0 | 0 | 0
7 | C#C[C@]1(O)CC[C@H]2[C@@H]3CCC4=CC(=O)CC[C@]4(C)[C@H]3CC[C@@]21C [ethisterone] | 106 | 102 | 105 | 101 | 95.6 | 97.3 | 103 | 94.6 | 96.4 | 102 | 95.7 | 95.9 | 103 | 103 | 102 | 89.4 | 103 | 89.4 | 91.1 | 97.5 | 109 | 102 | 97.9 | 95.1 | 97.6 | > 10 | > 10 | > 10 | > 10 | > 10 | 0 | 0 | 0 | 0 | 0
8 | CCC(N)C(O)c1ccc(O)c(O)c1 (stereo not given) [ethylnorepinephrine] | 93.9 | 102 | 104 | 107 | 112 | 100 | 94.8 | 98.4 | 98.4 | 99.3 | 101 | 99.4 | 108 | 91.9 | 104 | 93.7 | 95.5 | 103 | 89.9 | 95.1 | 100 | 110 | 98.7 | 109 | 102 | > 10 | > 10 | > 10 | > 10 | > 10 | 0 | 0 | 0 | 0 | 0
9 | CCOC(=O)Nc1ccc(NCc2ccc(F)cc2)nc1N [flupirtine] | 104 | 111 | 98.2 | 98.6 | 97 | 100 | 99.1 | 101 | 101 | 99.5 | 105 | 113 | 98.6 | 88.2 | 91.3 | 106 | 102 | 99.6 | 87.7 | 96 | 89.2 | 101 | 103 | 98.4 | 99.8 | > 10 | > 10 | > 10 | > 10 | > 10 | 0 | 0 | 0.5 | 0.6 | 0
10 | Fc1ccc(C(c2ccccc2)(c2ccccc2F)n2ccnc2)cc1 (stereo not given) [flutrimazole] | 97 | 102 | 108 | 118 | 99.2 | 108 | 107 | 107 | 102 | 97.1 | 102 | 92 | 107 | 90.4 | 106 | 122 | 112 | 96.1 | 98.9 | 80.5 | 106 | 110 | 95.7 | 96.5 | 97.7 | > 10 | > 10 | > 10 | > 10 | > 10 | 0 | 0 | 0 | 0.7 | 0
11 | CNC(=O)CN(CCN(CCN(CC(=O)[O-])CC(=O)NC)CC(=O)[O-])CC(=O)[O-].[Gd+3] [gadodiamide] | 97.6 | 101 | 98.5 | 97.9 | 94.3 | 103 | 102 | 96.6 | 98.3 | 98.1 | 115 | 96.9 | 105 | 98.8 | 108 | 92.9 | 98.9 | 90.9 | 91.1 | 103 | 96.6 | 102 | 108 | 98.6 | 93.1 | > 10 | > 10 | > 10 | > 10 | > 10 | 0 | 0 | 0 | 0 | 0
12 | CC(C)=CCC[C@](C)(O[C@@H]1O[C@H](CO)[C@@H](O)[C@H](O)[C@H]1O)[C@H]1CC[C@]2(C)[C@@H]1[C@H](O)C[C@@H]1[C@@]3(C)CC[C@H](O)C(C)(C)[C@@H]3CC[C@]12C [ginsenoside-C-K] | 109 | 99.7 | 103 | 98.4 | 98.1 | 99.4 | 94.7 | 99.7 | 97.5 | 99.3 | 89.3 | 97.3 | 98.9 | 101 | 99.4 | 91.7 | 104 | 94.5 | 96.2 | 102 | 108 | 111 | 106 | 92.7 | 85.9 | > 10 | > 10 | > 10 | > 10 | > 10 | 0 | 0 | 0 | 0 | 0.7
13 | O=C(O)c1ccc(S(=O)(=O)N(Cl)Cl)cc1 [halazone] | 107 | 108 | 106 | 97 | 96.7 | 101 | 95.6 | 98.7 | 95.6 | 102 | 106 | 99.6 | 95.4 | 94.7 | 107 | 112 | 93.5 | 84.2 | 90.1 | 90.8 | 97.1 | 94.1 | 110 | 107 | 100 | > 10 | > 10 | > 10 | > 10 | > 10 | 0 | 0 | 0 | 3.5 | 0
14 | CCc1ccc(/C=C/C(=O)Nc2ccc(C(C)=O)cc2)o1 [heclin] | 102 | 103 | 98.9 | 99.9 | 103 | 93.2 | 98.6 | 96.3 | 94.2 | 90.3 | 98.5 | 106 | 95 | 99.6 | 87.3 | 91.1 | 102 | 91.4 | 95.2 | 88.4 | 93.6 | 95.6 | 88.5 | 92.3 | 85.6 | > 10 | > 10 | > 10 | > 10 | > 10 | 0 | 0 | 0.1 | 0 | 0.4
